Tests used:
[1] = Plasma stability, mouse EDTA plasma; format: in vitro ADME; conditions: 37° C.
Experimental: Human and mouse liver microsomes and NADPH regenerating system solutions were purchased from Corning Life Sciences (Tewsbury, MA). Human and mouse K2EDTA was purchased from BioIVT (Westbury, NY). Metabolic studies in liver microsomes (0.125 mg/mL) were conducted in 1× phosphate buffered saline (pH 7.4), NADPH-generating system, and 10 μM of RA475 in a final volume of 250 μl. An incubation mixture with and without NADPH-generating system as well as a neat solution without microsomes and NADPH-generating system were prepared. RA475 was added at the same concentration level into human and mouse EDTA plasma. All reactions were initiated with the addition of RA475. Incubations were performed in glass tubes maintained at 37° C. in a shaker bath. At 0, 30, and 60 minutes, 10 μL aliquots were sampled from the reaction mixture and 0.5 mL of acetonitrile containing internal standard (Up284) was added to each samples. Samples were vortex-mixed and underwent centrifugation for 5 min at 1430×g. A 10 μL aliquot of the supernatant was injected onto the LC-MS instrument for qualitative analysis using a temperature-controlled autosampling device operating at 5° C. Chromatographic analysis was performed using a Waters Acquity™ Ultra Performance LC. […] The mobile phase used for the chromatographic separation was composed of water (mobile phase A) and acetonitrile (mobile phase B) containing 0.1% (v/v) formic acid with a flow rate of 0.3 mL/min. The initial mobile phase composition was 80% mobile phase A and 20% mobile phase B. From 0.5 to 1 min, mobile phase B was increased linearly from 20% to 100%. From 1 to 3 min, mobile phase B was maintained at 100%. From 3.0 to 3.1 min, the gradient decreased to 20% mobile phase B and the conditions were maintained until 4.1 min to re-equilibrate the column for the next injection. The column effluent was monitored using an AB Sciex 5500 triple quadrupole mass spectrometer. The instrument was equipped with an electrospray interface, operated in a positive mode and controlled by the Analyst v1.6 software. For the stability study, the mass spectrometer was programmed to monitor the following MRM transition 408.2→366.1 for RA475 and 366.2→155.8 for UP284 (internal standard). Results were assessed qualitatively comparing the average area ratio of RA475 at 0 hr to area ratio at 30 and 60 minutes for both mouse and human liver microsomes. RA475 was not analyzed for metabolites due to the concentration of RA475 not decreasing.

[2] = tested on: high molecular weight polyubiquitinated proteins in SKOV3 cells; experiment: Western blot for polyubiquitinated proteins, SKOV3 cells; format: cell-based; conditions: 12 hr, Up284 and RA475 0.5 and 1 μM, RA190 1 μM
Experimental: Cell lysate (10-20 μg total protein) prepared in MPER (Pierce) from each sample was subjected to SDS-PAGE, transferred to PVDF membranes and analyzed by Western blot using antibodies specific for ubiquitin (P4D1, sc-8017, Santa Cruz), or after stripping antibody for actin (#66009, Protein Tech Group), at the dilutions recommended by the manufacturers, and for secondary antibodies either peroxidase-linked anti-mouse IgG or anti-rabbit IgG (GE Healthcare UK Ltd) were utilized at the recommended dilution. The blots were developed using HyGLO chemiluminescent detection reagent (Denville).
Like RA190, RA475 was designed to be an inhibitor of upstream 19S RP proteasome function. […] Treatment with the same doses of Up284 (0.5 and 1 μM) or 1 μM RA190 provided positive controls, and vehicle alone (DMSO) was used as the negative control. At the end of the incubation, attached cells were lysed using MPER buffer according to the manufacturer's protocol. The lysates were subjected to Western blot analysis using antibody to ubiquitin, and then stripped and re-probed with actin antibody to provide a loading control (FIG. 5).
Proteasome inhibitors cause a rapid accumulation of polyUb proteins that is associated with unresolved UPR stress and the induction of apoptosis. Since RA475 is cytotoxic to ovarian cancer cells (Table 1), and induces such a rapid accumulation of polyUb proteins (FIG. 5), it was examined whether RA475 also triggered apoptosis. SKOV3 cells (FIG. 5A) were treated with Up284 (0.5 μM and 1 μM), 1 μM RA190, RA475 (0.5 μM and 1 μM) or vehicle alone (DMSO) and then cultured for 12 hr. OVCAR3 cells (FIG. 5B) were treated with Up284 (0.5 μM), Bortezomib (Bz, 0.25 μM), Ixazomib (Iz, 0.25 μM), RA475 (0.5 μM and 1 μM) or vehicle alone (DMSO). The attached cells were harvested and their lysates were subjected to Western blot analysis, first probed with antibody to ubiquitin and then to actin.

MCF7 = experiment: MTT cytotoxicity assay, MCF7; format: cell-based; conditions: MCF7, breast, 72 hr, read-out: IC50, cell killing
Experimental: (§1) All cell lines were obtained from the American Type Culture Collection (ATCC) and cultured in the specified medium supplemented with 10% fetal bovine serum, 100 IU/mL penicillin, and 100 μg/mL streptomycin at 37° C. in a humidified 5% CO2/95% air incubator. To assess drug cytotoxicity cells were seeded at 2,500 cells/well (10,000 cells/well for MM lines and primary cells) in 100 μL medium in 96-well plate. […]
(§2) It was examined whether the RPN13 inhibitor, RA475, was cytotoxic for cancer cell lines using the MTT assay.

MC38 = experiment: MTT cytotoxicity assay, MC38; format: cell-based; conditions: MC38, colon, 72 hr, read-out: IC50, cell killing
Experimental: as §1, §2

PEA1 = experiment: MTT cytotoxicity assay, PEA1; format: cell-based; conditions: PEA1, ovarian, 72 hr, read-out: IC50, cell killing
Experimental: as §1, §2

[3] = tested on: 4T1 cells stably expressing 4UbFL; experiment: 4UbFL proteasome reporter, 4T1 cells; format: cell-based; conditions: 4 hr treatment, IVIS imager
Experimental: Data are presented as IVIS image (FIG. 8A) and bioluminescence units (FIG. 8B).
4T1 and HCC1806 cells were transfected with 4UbFL plasmid using TransIT2020 transfection reagent for a period of 48 hrs and cells were selected using G418 antibiotic from single colonies. Selected cells were seeded in a 24-well plate (50,000/well) and incubated for 18 h at 37° C. in an incubator. Next, cells were treated with compounds for the period of 4 hr and Luciferin was added (50 uL each well, 7.8 mg/mL) and imaged through an IVIS200 instrument and plotted as a bioluminescent value or fold increase to DMSO control.

[4] = Solubility compared with RA190; format: physicochemical; conditions: compared with prototypic RPN13 inhibitor RA190

Structure (SMILES)	% Drug Remaining ([1]; 0 minutes)	% Drug Remaining ([1]; 30 minutes)	% Drug Remaining ([1]; 60 minutes)	accumulation of polyUb proteins [2]	IC50 (MCF7)	IC50 (MC38)	IC50 (PEA1)	bioluminescence of 4UbFL reporter [3]	solubility relative to RA190 [4]
N#Cc1ccc(/C=C2/C(=O)/C(=C/c3ccc(C#N)cc3)C23CCNCC3)cc1 [Up284, reference compound]	100%	84%	94%	profound accumulation					
Cl.Cl.N#Cc1ccc(/C=C2/C(=O)/C(=C/c3ccc(C#N)cc3)C23CCN(C(=N)N)CC3)cc1 [RA475]	100%	109%	109%	very significant increase in a dose-dependent manner	742 nM	359 nM	406 nM	dose-dependent increase	better solubility
